Results taken from patent US10239871B2, “Compounds and methods for regulating integrins” (ADHAERE PHARMACEUTICALS, INC., priority 2012, dated 2019).
Entries after “also recorded” stand apart in the source; their conditions may differ.

Columns and labels:
MyD88 = MyD88 levels in THP-1 cells; type: cell-based, human
Excerpt: TLR4-mediated signaling requires participation of the adaptor protein MyD88 (43) and MyD88−/− mice are protected from kidney damage following IRI. TLR4 activation leads to the binding and stabilization of adaptor protein MyD88, which recruits downstream kinases to initiate Nf-kB-mediated pro-inflammatory signaling. Subsequently, TLR4 signaling induces a negative feedback loop by endogenous activation of CD11b/CD18, which activates Syk to phosphorylate MyD88, tagging it for ubiquitin-mediated destruction. […] A pilot experiment was carried out to validate this hypothesis by determining the levels of MyD88 in human monocytic THP-1 cells.

Diabetic nephropathy = Diabetic nephropathy model (BTBR ob/ob mouse); type: in vivo
Procedure: The efficacy of LA1 was tested in an experimental model of Diabetic nephropathy (DN), where inflammation plays a major role. It was surmised that reducing leukocyte activation, recruitment and influx can be a beneficial strategy for developing therapeutics against DN.

SD rats = assay: Subacute toxicity assessment in rats; type: in vivo, rat
Procedure: LA1 is non-toxic in vivo. A subacute toxicity assessment of LA1 in rats was performed.
LA1 had no effect on the daily food intake or growth.
Next, a subacute toxicity assessment was performed of LA1 in rats in the Comparative Pathology core. […] LA1 had no effect on the daily food intake or growth.

C57BL/6J mice = assay: Survival after sublethal total body irradiation; type: in vivo; settings: 20 μg/animal for seven days
Procedure: Control groups (16 mice per group) of 6-8 weeks old C57BL/6J mice received a single sublethal dose (6 Gy) of total body radiation (TBI) and were monitored for survival with radiation alone. The experimental groups (16 mice per group) of 6-8 weeks old C57BL/6J received a single sublethal dose (6 Gy) of total body radiation (TBI) and were administered leukadherin LA1 (20 μg/animal) for seven consecutive days. Additionally, two additional control groups of animals were monitored—animals with no treatment at all or animals that were administered LA1 for seven consecutive days in the absence of any irradiation.

Human macrophages = assay: TNF-α release from human macrophages; type: cell-based
[1] = tested on: neutrophils, hepatocytes, hERG; assay: Pilot in vitro ADME assay (neutrophils, hepatocytes, hERG); settings: at up to 100 µM
neutrophil chemotaxis = settings: previously shown [55]; cited from earlier work
CD11b/CD18 [2] = biological target: T1, CD11b/CD18 (Homo sapiens, UniProt P11215); settings: earlier described [55]; cited from earlier work
CD11b/CD18 [3] = biological target: T1, CD11b/CD18; assay: Flow chamber assay (adhesion under wall shear stress); type: cell-based; design: expressed in transfected cells; host or cells: 293T cells, transient transfection; settings: 25 μM LA1, unlike Mn2+
Procedure: The flow chamber assay was performed as described in literature (Chen, J. F., Salas, A. & Springer, T. A. Bistable regulation of integrin adhesiveness by a bipolar metal ion cluster. Nat. Struct. Biol. 10, 995-1001 (2003)). A polystyrene Petri dish was coated with a 5 mm diameter, 20 μL spot of 20 μg/mL purified h-ICAM-1/Fc (R&D) or 20 μg/mL Fibrinogen in coating buffer (PBS, 10 mM NaHCO3, pH 9.0) for 1 hour at 37° C., followed by 2% BSA in coating buffer for 1 hour at 37° C. to block nonspecific binding sites. Transient transfected 293T cells were washed twice with wash buffer (20 mM Hepes, 150 mM NaCl, pH 7.4, 5 mM EDTA/0.5% BSA), subsequently once with HBS containing 1 mM Ca^2+ and 1 mM Mg^2+ (HBS^++), and finally resuspended at the concentration of 5×10^6/mL in HBS^++ ([…], 0.5% BSA) and kept on ice. Cells were incubated in 2% DMSO with or without 25 μM LA1 at 37° C. for 30 minutes. And subsequently infused in the flow chamber using a Harvard apparatus programmable syringe pump. Cells were allowed to settle down for 5 minutes, and accumulate for 30 seconds at 0.3 dyn/cm^2 and 10 seconds at 0.4 dyn/cm^2. […] The number of cells remaining abound at the end of each 10-sec interval were determined. Rolling velocity at each shear stress was calculated from the average distance traveled by rolling cells in 3 seconds. […]

[4] = daily administration, fully diabetic animals

## O=C(O)c1ccc(-c2ccc(/C=C3\SC(=S)N(Cc4ccccc4)C3=O)o2)cc1 [LA1]
MyD88; LA1 alone, absence of LPS
  time to complete degradation of MyD88: less than 2 hours
MyD88; co-treatment with LPS, THP-1 cells
  MyD88 degradation: much faster degradation of MyD88
Diabetic nephropathy; BTBR ob/ob mouse model
  glomerular damage and glomerular mesangial sclerosis: reduced glomerular damage and glomerular mesangial sclerosis
Diabetic nephropathy; [4]
  kidney function: preserved kidney function
  number of infiltrating leukocytes in the kidney: significantly reduced the number of infiltrating leukocytes
SD rats; IP ~3 mg/kg/d for 21 d
  Haematological constants: on par with those of controls
  biochemical measurements in serum and liver (enzyme levels, serum constituents): no appreciable changes
  daily food intake or growth: no effect
SD rats; IP ~3 mg/kg/d for 21 d, SD rats of both sexes
  overt toxicity or mortality: failed to induce any overt toxicity or mortality
SD rats; autopsy, lung, heart, spleen, liver, kidney
  relative organ weights of vital organs and their histoarchitecture: no significant alterations
C57BL/6J mice; with or without 6 Gy TBI
  animal mortality: did not result in any increase in animal mortality
C57BL/6J mice; 6 Gy TBI
  effect on survival after sublethal TBI: protective effect
Human macrophages; LA1 alone
  cellular morphology: no effect on cellular morphology
Human macrophages; dsRNA antigen (R848) plus LA1, lupus patients and healthy volunteers
  TNF-α release from stimulated macrophages: significantly reduced the TNF-α release; also recorded: significantly impaired
Human macrophages; over 24 hrs
  TNF-α induction by LA1 alone: did not induce TNF-α
[1]
  adverse findings in pilot in vitro ADME assay: no adverse findings
Neutrophil chemotaxis
  neutrophil chemotaxis: impairs neutrophil chemotaxis
CD11b/CD18 [2]
  affinity for CD11b/CD18: high-affinity
CD11b/CD18 [3]
  adhesive behavior of CD11b/CD18 transfectants under wall shear stress (conformation induced): induces priming of CD11b/CD18 and converts it into intermediate conformation
